{
  "source": "patent US8765728B2",
  "about": "“[1,5]-diazocin derivatives” (MelliTech, priority 2009, dated 2014)",
  "data": [
    {"test_system": "Min6 cell", "assay": "Insulin secretion response of beta cell line to formula I compounds (insulin ELISA)", "format": "cell-based", "conditions": "rank according to % increase versus control at most effective dose", "method_in_brief": "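After compound or vehicle exposure, Min6 cells were held 2 h in glucose-free medium and preincubated 30 min at 37° C in glucose-free KRBH (pH 7.4, 0.1% BSA). They were then incubated 30 min at 37° C in KRBH with varying glucose. Secreted insulin and acid-ethanol-extracted intracellular insulin were measured by ELISA.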", "values": [
      {"smiles": "Cc1cc(C(=O)N2CCC(=O)N(C3CC3)Cc3cccnc32)n(C)n1", "note": "[Compound 105, 5-cyclopropyl-1-(1,3-dimethyl-1H-pyrazole-5-carbonyl)-2,3,5,6-tetrahydropyrido[2,3-b][1,5]diazocin-4(1H)-one]", "Insulin secretion (Min6 cell) Range 1 to 5": "3 (3: 120-140% of control)"},
      {"smiles": "Cc1noc(C)c1C(=O)N1CCC(=O)N(C2CC2)Cc2cccnc21", "note": "[Compound 106, 5-cyclopropyl-1-(3,5-dimethylisoxazole-4-carbonyl)-2,3,5,6-tetrahydropyrido[2,3-b][1,5]diazocin-4(1H)-one]", "Insulin secretion (Min6 cell) Range 1 to 5": "1 (1: 90-110% of control)"},
      {"smiles": "O=C(c1cnccn1)N1CCC(=O)N(C2CC2)Cc2cccnc21", "note": "[Compound 107, 5-cyclopropyl-1-(pyrazine-2-carbonyl)-2,3,5,6-tetrahydropyrido[2,3-b][1,5]diazocin-4(1H)-one]", "Insulin secretion (Min6 cell) Range 1 to 5": "2 (2: 110-120% of control)"},
      {"smiles": "O=C1CCNc2ccc(OC(F)F)cc2CN1C1CC1", "note": "[Compound 108, 5-cyclopropyl-8-(difluoromethoxy)-2,3,5,6-tetrahydrobenzo[b][1,5]diazocin-4(1H)-one]", "Insulin secretion (Min6 cell) Range 1 to 5": "2 (2: 110-120% of control)"},
      {"smiles": "COc1ccc2c(c1)CN(C1CC1)C(=O)CCN2C[C@@H](O)COc1cccc(F)c1", "note": "[Compound 109, (R)-5-cyclopropyl-1-(3-(3-fluorophenoxy)-2-hydroxypropyl)-8-methoxy-2,3,5,6-tetrahydrobenzo[b][1,5]diazocin-4(1H)-one]", "Insulin secretion (Min6 cell) Range 1 to 5": "3 (3: 120-140% of control)"},
      {"smiles": "COc1ccc2c(c1)CN(C1CC1)C(=O)CCN2C[C@H](O)COc1cccc(F)c1", "note": "[Compound 110, (S)-5-cyclopropyl-1-(3-(3-fluorophenoxy)-2-hydroxypropyl)-8-methoxy-2,3,5,6-tetrahydrobenzo[b][1,5]diazocin-4(1H)-one]", "Insulin secretion (Min6 cell) Range 1 to 5": "1 (1: 90-110% of control)"},
      {"smiles": "O=C(c1ccno1)N1CCC(=O)N(C2CC2)Cc2cc(OC(F)F)ccc21", "note": "[Compound 111, 5-cyclopropyl-8-(difluoromethoxy)-1-(isoxazole-5-carbonyl)-2,3,5,6-tetrahydrobenzo[b][1,5]diazocin-4(1H)-one]", "Insulin secretion (Min6 cell) Range 1 to 5": "1 (1: 90-110% of control)"},
      {"smiles": "O=C(c1ncoc1-c1ccccc1)N1CCC(=O)N(C2CC2)Cc2cc(OC(F)F)ccc21", "note": "[Compound 112, 5-cyclopropyl-8-(difluoromethoxy)-1-(5-phenyloxazole-4-carbonyl)-2,3,5,6-tetrahydrobenzo[b][1,5]diazocin-4(1H)-one]", "Insulin secretion (Min6 cell) Range 1 to 5": "1 (1: 90-110% of control)"},
      {"smiles": "Cc1cc(C(=O)N2CCC(=O)N(C3CC3)Cc3cc(OC(F)F)ccc32)no1", "note": "[Compound 113, 5-cyclopropyl-8-(difluoromethoxy)-1-(5-methylisoxazole-3-carbonyl)-2,3,5,6-tetrahydrobenzo[b][1,5]diazocin-4(1H)-one]", "Insulin secretion (Min6 cell) Range 1 to 5": "1 (1: 90-110% of control)"},
      {"smiles": "Cc1cc(C(=O)N2CCC(=O)N(C3CC3)Cc3cc(OC(F)F)ccc32)n(C)n1", "note": "[Compound 114, 5-cyclopropyl-8-(difluoromethoxy)-1-(1,3-dimethyl-1H-pyrazole-5-carbonyl)-2,3,5,6-tetrahydrobenzo[b][1,5]diazocin-4(1H)-one]", "Insulin secretion (Min6 cell) Range 1 to 5": "1 (1: 90-110% of control)"},
      {"smiles": "Cc1noc(C)c1C(=O)N1CCC(=O)N(C2CC2)Cc2cc(OC(F)F)ccc21", "note": "[Compound 115, 5-cyclopropyl-8-(difluoromethoxy)-1-(3,5-dimethylisoxazole-4-carbonyl)-2,3,5,6-tetrahydrobenzo[b][1,5]diazocin-4(1H)-one]", "Insulin secretion (Min6 cell) Range 1 to 5": "1 (1: 90-110% of control)"},
      {"smiles": "O=C(c1cnccn1)N1CCC(=O)N(C2CC2)Cc2cc(OC(F)F)ccc21", "note": "[Compound 116, 5-cyclopropyl-8-(difluoromethoxy)-1-(pyrazine-2-carbonyl)-2,3,5,6-tetrahydrobenzo[b][1,5]diazocin-4(1H)-one]", "Insulin secretion (Min6 cell) Range 1 to 5": "2 (2: 110-120% of control)"},
      {"smiles": "O=C1CCN(C[C@@H](O)COc2cccc(F)c2)c2ccc(OC(F)F)cc2CN1C1CC1", "note": "[Compound 117, (R)-5-cyclopropyl-8-(difluoromethoxy)-1-(3-(3-fluorophenoxy)-2-hydroxypropyl)-2,3,5,6-tetrahydrobenzo[b][1,5]diazocin-4(1H)-one]", "Insulin secretion (Min6 cell) Range 1 to 5": "1 (1: 90-110% of control)"},
      {"smiles": "O=C1CCN(C[C@H](O)COc2cccc(F)c2)c2ccc(OC(F)F)cc2CN1C1CC1", "note": "[Compound 118, (S)-5-cyclopropyl-8-(difluoromethoxy)-1-(3-(3-fluorophenoxy)-2-hydroxypropyl)-2,3,5,6-tetrahydrobenzo[b][1,5]diazocin-4(1H)-one]", "Insulin secretion (Min6 cell) Range 1 to 5": "2 (2: 110-120% of control)"},
      {"smiles": "O=C1CCN(C[C@@H](O)COc2ccc(Cl)cc2)c2ccc(OC(F)F)cc2CN1C1CC1", "note": "[Compound 119, (R)-1-(3-(4-chlorophenoxy)-2-hydroxypropyl)-5-cyclopropyl-8-(difluoromethoxy)-2,3,5,6-tetrahydrobenzo[b][1,5]diazocin-4(1H)-one]", "Insulin secretion (Min6 cell) Range 1 to 5": "3 (3: 120-140% of control)"},
      {"smiles": "O=C1CCN(C[C@H](O)COc2ccc(Cl)cc2)c2ccc(OC(F)F)cc2CN1C1CC1", "note": "[Compound 120, (S)-1-(3-(4-chlorophenoxy)-2-hydroxypropyl)-5-cyclopropyl-8-(difluoromethoxy)-2,3,5,6-tetrahydrobenzo[b][1,5]diazocin-4(1H)-one]", "Insulin secretion (Min6 cell) Range 1 to 5": "1 (1: 90-110% of control)"},
      {"smiles": "COCC(=O)N1CCC(=O)N(C2CC2)Cc2cc(F)ccc21", "note": "[Compound 121, 5-cyclopropyl-8-fluoro-1-(2-methoxyacetyl)-2,3,5,6-tetrahydrobenzo[b][1,5]diazocin-4(1H)-one]", "Insulin secretion (Min6 cell) Range 1 to 5": "1 (1: 90-110% of control)"},
      {"smiles": "O=C(COc1ccccc1)N1CCC(=O)N(C2CC2)Cc2cc(F)ccc21", "note": "[Compound 122, 5-cyclopropyl-8-fluoro-1-(2-phenoxyacetyl)-2,3,5,6-tetrahydrobenzo[b][1,5]diazocin-4(1H)-one]", "Insulin secretion (Min6 cell) Range 1 to 5": "1 (1: 90-110% of control)"},
      {"smiles": "O=C(c1ccco1)N1CCC(=O)N(C2CC2)Cc2cc(F)ccc21", "note": "[Compound 123, 5-cyclopropyl-8-fluoro-1-(furan-2-carbonyl)-2,3,5,6-tetrahydrobenzo[b][1,5]diazocin-4(1H)-one]", "Insulin secretion (Min6 cell) Range 1 to 5": "1 (1: 90-110% of control)"},
      {"smiles": "O=C1CCNc2ccc(OC(F)F)cc2CN1C1CC1", "note": "[Compound 124, 5-cyclopropyl-8-(difluoromethoxy)-2,3,5,6-tetrahydrobenzo[b][1,5]diazocin-4(1H)-one]", "Insulin secretion (Min6 cell) Range 1 to 5": "1 (1: 90-110% of control)"},
      {"smiles": "Cn1cnc(S(=O)(=O)N2CCC(=O)N(C3CC3)Cc3c2ccc2c3OCCO2)c1", "note": "[Compound 125, 11-cyclopropyl-7-((1-methyl-1H-imidazol-4-yl)sulfonyl)-2,3,8,9,11,12-hexahydro-[1,4]dioxino[2′,3′:3,4]benzo[1,2-b][1,5]diazocin-10(7H)-one]", "Insulin secretion (Min6 cell) Range 1 to 5": "1 (1: 90-110% of control)"},
      {"smiles": "O=C1CCN(C[C@@H](O)COc2ccc(Cl)cc2)c2ccc3c(c2CN1C1CC1)OCCO3", "note": "[Compound 126, (R)-7-(3-(4-chlorophenoxy)-2-hydroxypropyl)-11-cyclopropyl-2,3,8,9,11,12-hexahydro-[1,4]dioxino[2′,3′:3,4]benzo[1,2-b][1,5]diazocin-10(7H)-one]", "Insulin secretion (Min6 cell) Range 1 to 5": "2 (2: 110-120% of control)"}
    ]}
  ]
}
